Data reported in patent publication US4075192A, “Nonapeptides and methods for their production” (Parke, Davis & Company, priority 1977, dated 1978).
Non-standard residues stand in square brackets, D forms with d. Residues, ends and D or L forms follow the SMILES beside them. No end group written: not given here. *: point of attachment. pGlu = O=C1CC[C@@H](C(=O)O)N1; Orn = NCCC[C@H](N)C(=O)O; Bn = c1ccc(C*)cc1

System: LRF (luteinizing hormone releasing factor) induced luteinizing hormone (LH) release
Experiment: In vitro LRF antagonist test in rat anterior pituitary cell cultures
Type: cell-based
Source text: Nonapeptides of this invention were screened for LRF antagonist activity in vitro using rat anterior pituitary cell cultures as described by Vale et al. [Endocrinology, 91, 562 (1972)]. The inhibition of LRF (luteinizing hormone releasing factor) induced luteinizing hormone (LH) release into the culture medium is the endpoint in this in vitro bioassay.

| Compound | LH Value (compound Molar Conc. 1×10^-6, LH released into culture medium) [ng/mL] | % LH Release Inhibition (compound Molar Conc. 1×10^-6, inhibition of LRF induced LH release) [%] | LH Value (LRF alone, Molar Conc. 2.5×10^-10) [ng/mL] |
| --- | --- | --- | --- |
| CCNC(=O)[C@@H]1CCCN1C(=O)[C@H](CCCN)NC(=O)[C@H](CC(C)C)NC(=O)[C@@H](C)NC(=O)[C@H](COCc1ccccc1)NC(=O)[C@H](Cc1ccc(OCc2ccccc2)cc1)NC(=O)[C@H](Cc1c[nH]c2ccccc12)NC(=O)[C@@H](Cc1ccccc1)NC(=O)[C@@H]1CCC(=O)N1 [L-pyroglutamyl-D-phenylalanyl-L-tryptophyl-O-benzyl-L-tyrosyl-O-benzyl- L-seryl-D-alanyl-L-leucyl-L-ornithyl-L-proline N-ethylamide] ([pGlu][dF]WY(Bn)S(Bn)[dA]L[Orn]P-NHEt) | 19.15 | 61 | – |
| LRF Control: luteinizing hormone releasing factor, also referred to as luteinizing hormone releasing hormone, LH-RH; stimulates secretion of luteinizing hormone (QHWSYGLRPG; ends and bridges not checked; UniProt P01148 24-33, looked up) [reference compound] | – | – | 39.98 |
